Values quoted from earlier work, collected in publication PMC10423561, “Effects of the CYP3A inhibitors, voriconazole, itraconazole, and fluconazole on the pharmacokinetics of osimertinib in rats” (PeerJ, 2023).
Like-named read-outs stand apart in the source and are kept apart here.

Tests used:
[1] = set-up: method as in Fu et al., 2023; conditions: ref Fu et al., 2023, cited from earlier work
CYP3A = CYP3A probe substrate; inhibitor not stated; ref Uchida, Tanaka & Namiki, 2014; cited from earlier work

**Q.** What does the source list for `C=CC(=O)Nc1cc(Nc2nccc(-c3cn(C4CC4)c4ccccc34)n2)c(OC)cc1N(C)CCN(C)C` [almonertinib]?
**A.** increase in systemic exposure of almonertinib ([1]; with FCZ): 3.4 fold; increase in systemic exposure of almonertinib ([1]; with VCZ): 2.7 fold

**Q.** With `Cc1ncc2n1-c1ccc(Cl)cc1C(c1ccccc1F)=NC2` [midazolam] as the molecule, how does the “increase in AUC0–360 of midazolam” value (CYP3A) read?
**A.** 133%
